From patent publication US7772245B2, “Inhibitors of histone deacetylase” (Miikana Therapeutics, Inc., priority 2005, dated 2010) come the findings set out here.

For assay [1], the system named is HCT116 cells. Kind of assay: Whole cell cytotoxicity assay: Sulforhodamine B. Format: cell-based. The settings on record: Homo sapiens, HCT-116; 100 μM compound; 48 hours incubation with drug; Sulforhodamine B staining; read-out: % Inhibition of HCT116 cell growth @ 100 μM.
Assay [2] has as its system HDAC. In words: In vitro fluorescent histone deacetylase assay (Biomol HDAC fluorescent activity kit, HeLa cell nuclear extract). The class given is biochemical. The following applies: 100 μM compound; HeLa cell nuclear extract as source of HDAC activity; 50 μM substrate, 10 min at room temperature. The method, boiled down:
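HeLa nuclear extract as HDAC source with fluorogenic substrate at 50 μM final, reacting 10 min at room temperature before stop. Compounds serially diluted in assay buffer, final DMSO ≤2%; fluorescence read at ex 355 nm / em 460 nm.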

With `CC(=O)N1CCN(Cc2cccc(-c3ccc4[nH]c5c(c4c3)CN(c3ncc(C(=O)NO)cn3)CC5)c2)CC1` [Example 101, N-hydroxy-2-{8-[3-((4-acetylpiperazin-1-yl)methyl)phenyl]-1,3,4,5-tetrahydro-2H-pyrido[4,3-b]indol-2-yl}pyrimidine-5-carboxamide], in assay [1], the inhibition at 100 µM amounted to 97.9%. Moreover, the “% Inhibition of HDAC @ 100 μM” value in assay [2] came to 100%.
On the same counts, the results for `O=C(NO)c1cnc(N2CCc3[nH]c4ccc(-c5ccc(CN6CCOCC6)cc5)cc4c3C2)nc1` [Example 104, N-hydroxy-2-{8-[4-(morpholin-4-ylmethyl)phenyl]-1,3,4,5-tetrahydro-2H-pyrido[4,3-b]indol-2-yl}pyrimidine-5-carboxamide] are 92% and 100%.
Take `CN1CCN(Cc2ccc(-c3ccc4[nH]c5c(c4c3)CN(c3ncc(C(=O)NO)cn3)CC5)cc2)CC1` [Example 106, N-hydroxy-2-{8-[4-((4-methylpiperazin-1-yl)methyl)phenyl]-1,3,4,5-tetrahydro-2H-pyrido[4,3-b]indol-2-yl}pyrimidine-5-carboxamide]: in assay [1], the inhibition at 100 µM is 98.3%. Moreover, the “% Inhibition of HDAC @ 100 μM” value in assay [2] is 99.9%.
On the same counts, the results for `O=C(NO)c1cnc(N2CCc3[nH]c4ccc(-c5ccc(CO)cc5)cc4c3C2)nc1` [Example 107, N-hydroxy-2-{8-[4-(hydroxymethyl)phenyl]-1,3,4,5-tetrahydro-2H-pyrido[4,3-b]indol-2-yl}pyrimidine-5-carboxamide] are 92.7% and 99.9%.
Regarding `CN1CCN(Cc2ccc(-c3ccc4[nH]c5c(c4c3)CN(c3ncc(C(=O)NO)cn3)CC5)o2)CC1` [Example 108, N-hydroxy-2-{8-[5-((4-methylpiperazin-1-yl)methyl)-2-furyl]-1,3,4,5-tetrahydro-2H-pyrido[4,3-b]indol-2-yl}pyrimidine-5-carboxamide], in assay [1], the inhibition at 100 µM turned out to be 99.1%. The “% Inhibition of HDAC @ 100 μM” value in assay [2] turned out to be 100%.
`O=C(NO)c1cnc(N2CCc3[nH]c4ccc(-c5ccc(CN6CCOCC6)o5)cc4c3C2)nc1` [Example 109, N-hydroxy-2-{8-[5-(morpholin-4-yl)methyl-2-furyl]-1,3,4,5-tetrahydro-2H-pyrido[4,3-b]indol-2-yl}pyrimidine-5-carboxamide]: in assay [1], the inhibition at 100 µM worked out at 91.7%. The “% Inhibition of HDAC @ 100 μM” value in assay [2] came to 100%.
For `CN1CCN(Cc2ccc(-c3ccc4[nH]c5c(c4c3)CN(c3ncc(C(=O)NO)cn3)CC5)s2)CC1` [Example 110, N-hydroxy-2-{8-[5-((4-methylpiperazin-1-yl)methyl)-thien-2-yl]-1,3,4,5-tetrahydro-2H-pyrido[4,3-b]indol-2-yl}pyrimidine-5-carboxamide] the same measures were 98.7% and 100%.
For `O=C(NO)c1cnc(N2CCc3[nH]c4cc(Br)ccc4c3C2)nc1` [Example 112, N-hydroxy-2-(7-bromo-1,3,4,5-tetrahydro-2H-pyrido[4,3-b]indol-2-yl)pyrimidine-5-carboxamide] the same measures were 98.7% and 99.9%.
Turning to `COc1ccc2[nH]c3c(c2c1)CCN(c1ncc(C(=O)NO)cn1)CC3` [Example 113, N-hydroxy-2-(9-methoxy-1,4,5,6-tetrahydroazepino[4,5-b]indol-3(2H)-1-yl)pyrimidine-5-carboxamide], the inhibition at 100 µM in assay [1] was found to be 98.7%. Moreover, in assay [2], the “% Inhibition of HDAC @ 100 μM” value turned out to be 100%.
Consider `O=C(NO)c1cnc(N2CCc3[nH]c4ccc(-c5cccc(CN6CCOCC6)c5)cc4c3CC2)nc1` [Example 116, N-hydroxy-2-(9-[3-(morpholin-4-ylmethy)phenyl]-1,4,5,6-tetrahydroazepino[4,5-b]indol-3(2H)-1-yl)pyrimidine-5-carboxamide], for which the inhibition at 100 µM in assay [1] worked out at 98.6%. The “% Inhibition of HDAC @ 100 μM” value in assay [2] is 100%.
With `CN1CCN(Cc2cccc(-c3ccc4[nH]c5c(c4c3)CCN(c3ncc(C(=O)NO)cn3)CC5)c2)CC1` [Example 117, N-hydroxy-2-(9-[3-((4-methylpiperazin-1-yl)methy)phenyl]-1,4,5,6-tetrahydroazepino[4,5-b]indol-3(2H)-1-yl)pyrimidine-5-carboxamide], the inhibition at 100 µM in assay [1] came to 98.6%. Besides, in assay [2], the “% Inhibition of HDAC @ 100 μM” value amounted to 99.8%.
On the same counts, the results for `O=C(NO)c1cnc(N2CCc3c(sc4ccccc34)C2)nc1` [Example 118, 2-(3,4-dihydro[1]benzothieno[2,3-c]pyridin-2(1H)-yl)-N-hydroxypyrimidine-5-carboxamide] are 98.9% and 99.7%.
For `O=C(NO)c1cnc(N2CCc3c(oc4ccccc34)C2)nc1` [Example 119, 2-(3,4-dihydro[1]benzofuro[2,3-c]pyridin-2(1)-yl)-N-hydroxypyrimidine-5-carboxamide] the same measures were 98.6% and 99.3%.
For `O=C(NO)c1cnc(N2CCc3[nH]c4cc(-c5ccccc5)ccc4c3C2)nc1` [Example 120, N-hydroxy-2-{7-phenyl-1,3,4,5-tetrahydro-2H-pyrido[4,3-b]indol-2-yl}pyrimidine-5-carboxamide] the same measures were 97.6% and 99.6%.
As for `O=C(NO)c1cnc(N2CCc3[nH]c4ccccc4c(=O)c3C2)nc1` [Example 122, N-hydroxy-2-(10-oxo-3,4,5,10-tetrahydrobenzo[b]-1,6-naphthyridin-2(1H)-yl)pyrimidine-5-carboxamide], the inhibition at 100 µM in assay [1] came out at 44.4%. Also, the “% Inhibition of HDAC @ 100 μM” value in assay [2] is 100%.
Turning to `CN1CCN(Cc2ccc3[nH]c4c(c3c2)CN(c2ncc(C(=O)NO)cn2)CC4)CC1` [Example 123, N-hydroxy-2-{8-[(4-methylpiperazin-1-yl)methyl]-1,3,4,5-tetrahydro-2H-pyrido[4,3-b]indol-2-yl}pyrimidine-5-carboxamide], the inhibition at 100 µM in assay [1] amounted to 97%. Also, in assay [2], the “% Inhibition of HDAC @ 100 μM” value turned out to be 100%.

As usually defined, the inhibition is the share of the control response that was lost under treatment.
